Laboratory results as given in the NIST ThermoML archive (doi:10.1021/je060411g).

Assay: molar heat capacity at constant pressure
Conditions: 101.33 kPa

CCC(C)CO (stereo not given) [2-methyl-1-butanol]
Conditions	molar heat capacity at constant pressure [J/K/mol]
84.68 K, Glass	66.37
85.32 K, Glass	66.9
86.62 K, Glass	68.05
88.13 K, Glass	68.63
88.55 K, Glass	69.49
89.15 K, Glass	69.5
90.45 K, Glass	69.12
90.85 K, Glass	70.72
92.36 K, Glass	71.63
92.5 K, Glass	69.54
92.77 K, Glass	72.07
93.04 K, Glass	72.48
94.27 K, Glass	72.89
94.29 K, Glass	72.88
94.69 K, Glass	73.39
96.19 K, Glass	74.2
96.22 K, Glass	74.42
96.61 K, Glass	74.74
98.11 K, Glass	75.66
98.15 K, Glass	75.92
98.53 K, Glass	76.35
100.03 K, Glass	77.35
100.07 K, Glass	77.68
100.45 K, Glass	77.93
101.96 K, Glass	78.33
101.99 K, Glass	78.7
102.38 K, Glass	78.97
103.89 K, Glass	79.44
103.92 K, Glass	79.95
104.32 K, Glass	80.34
105.82 K, Glass	80.96
105.85 K, Glass	81.54
106.25 K, Glass	82
107.75 K, Glass	82.7
107.79 K, Glass	83.22
108.19 K, Glass	83.82
109.68 K, Glass	84.31
109.72 K, Glass	84.61
110.13 K, Glass	85.55
111.62 K, Glass	86.17
111.66 K, Glass	86.13
112.07 K, Glass	87.55
113.54 K, Glass	88.63
113.6 K, Glass	88.13
114.02 K, Glass	89.94
115.46 K, Glass	92.53
115.54 K, Glass	91.47
115.95 K, Glass	93.24
117.36 K, Glass	100.69
117.46 K, Glass	98.77
117.87 K, Glass	98.66
124.07 K, Liquid	145.49
124.32 K, Liquid	145.64
124.62 K, Liquid	145.89
125.99 K, Liquid	145.72
126.25 K, Liquid	145.78
126.56 K, Liquid	145.84
127.96 K, Liquid	145.9
128.21 K, Liquid	145.94
128.53 K, Liquid	145.95
129.93 K, Liquid	146.02
130.19 K, Liquid	146.06
130.5 K, Liquid	146.03
131.9 K, Liquid	146.08
132.16 K, Liquid	146.14
132.47 K, Liquid	146.14
133.88 K, Liquid	146.23
134.14 K, Liquid	146.25
134.45 K, Liquid	146.21
135.85 K, Liquid	146.27
136.11 K, Liquid	146.35
136.42 K, Liquid	146.35
137.83 K, Liquid	146.45
138.09 K, Liquid	146.51
138.4 K, Liquid	146.51
139.8 K, Liquid	146.64
140.06 K, Liquid	146.68
140.37 K, Liquid	146.62
141.77 K, Liquid	146.82
142.04 K, Liquid	146.87
142.35 K, Liquid	146.83
143.75 K, Liquid	146.95
144.02 K, Liquid	146.99
144.32 K, Liquid	146.98
145.73 K, Liquid	147.13
145.99 K, Liquid	147.22
146.3 K, Liquid	147.23
147.7 K, Liquid	147.38
147.97 K, Liquid	147.38
148.27 K, Liquid	147.42
149.68 K, Liquid	147.55
149.94 K, Liquid	147.65
150.25 K, Liquid	147.61
151.45 K, Liquid	147.59
151.8 K, Liquid	147.34
151.92 K, Liquid	147.82
152.97 K, Liquid	147.67
153.9 K, Liquid	148.01
154.95 K, Liquid	148.09
155.88 K, Liquid	148.33
156.92 K, Liquid	148.38
157.86 K, Liquid	148.55
158.9 K, Liquid	148.61
159.84 K, Liquid	148.75
160.88 K, Liquid	148.86
161.82 K, Liquid	149.02
162.85 K, Liquid	149.11
163.8 K, Liquid	149.23
164.83 K, Liquid	149.31
165.78 K, Liquid	149.53
166.81 K, Liquid	149.67
167.76 K, Liquid	149.85
168.79 K, Liquid	149.95
169.74 K, Liquid	150.13
170.77 K, Liquid	150.21
171.72 K, Liquid	150.38
172.75 K, Liquid	150.45
173.69 K, Liquid	150.67
174.73 K, Liquid	150.8
175.67 K, Liquid	150.96
176.7 K, Liquid	151.12
177.65 K, Liquid	151.36
178.68 K, Liquid	151.42
179.63 K, Liquid	151.66
180.65 K, Liquid	151.78
181.61 K, Liquid	151.91
182.63 K, Liquid	152.05
183.59 K, Liquid	152.19
184.61 K, Liquid	152.36
185.56 K, Liquid	152.59
186.59 K, Liquid	152.73
187.54 K, Liquid	152.92
188.56 K, Liquid	153.02
189.52 K, Liquid	153.24
190.54 K, Liquid	153.38
191.5 K, Liquid	153.55
192.51 K, Liquid	153.71
193.48 K, Liquid	153.87
194.49 K, Liquid	154.12
195.45 K, Liquid	154.28
196.47 K, Liquid	154.44
197.43 K, Liquid	154.67
198.44 K, Liquid	154.78
199.4 K, Liquid	155
200.41 K, Liquid	155.18
201.38 K, Liquid	155.44
202.39 K, Liquid	155.73
203.35 K, Liquid	155.9
204.36 K, Liquid	156.25
205.33 K, Liquid	156.37
206.33 K, Liquid	156.66
207.3 K, Liquid	156.95
208.31 K, Liquid	157.5
209.28 K, Liquid	157.69
210.28 K, Liquid	158.2
211.25 K, Liquid	158.49
212.25 K, Liquid	158.88
213.22 K, Liquid	159.25
214.23 K, Liquid	159.75
215.2 K, Liquid	160.09
216.21 K, Liquid	160.71
217.17 K, Liquid	160.99
218.18 K, Liquid	161.49
219.15 K, Liquid	161.82
220.15 K, Liquid	162.39
221.13 K, Liquid	162.7
222.13 K, Liquid	163.26
223.11 K, Liquid	163.61
224.1 K, Liquid	164.01
225.09 K, Liquid	164.48
226.08 K, Liquid	164.73
227.07 K, Liquid	165.18
228.06 K, Liquid	165.39
229.05 K, Liquid	165.83
230.04 K, Liquid	166.09
231.03 K, Liquid	166.52
232.02 K, Liquid	166.86
233.01 K, Liquid	167.29
233.99 K, Liquid	167.66
234.99 K, Liquid	168.13
235.97 K, Liquid	168.53
236.96 K, Liquid	169
237.94 K, Liquid	169.41
238.94 K, Liquid	169.88
239.92 K, Liquid	170.34
240.92 K, Liquid	170.8
241.89 K, Liquid	171.24
242.89 K, Liquid	171.69
243.86 K, Liquid	172.18
244.85 K, Liquid	172.64
245.82 K, Liquid	173.22
246.81 K, Liquid	173.63
247.77 K, Liquid	174.23
248.76 K, Liquid	174.73
249.72 K, Liquid	175.28
250.7 K, Liquid	175.88
251.66 K, Liquid	176.43
252.64 K, Liquid	177.14
253.59 K, Liquid	177.16
254.57 K, Liquid	177.34
255.52 K, Liquid	177.97
256.5 K, Liquid	178.62
257.44 K, Liquid	179.24
258.43 K, Liquid	179.85
259.36 K, Liquid	180.45
260.34 K, Liquid	181.06
261.27 K, Liquid	181.7
262.25 K, Liquid	182.25
263.18 K, Liquid	182.89
264.15 K, Liquid	183.6
265.08 K, Liquid	184.25
266.04 K, Liquid	184.88
266.97 K, Liquid	185.71
267.93 K, Liquid	186.53
268.85 K, Liquid	187.04
269.81 K, Liquid	187.76
270.72 K, Liquid	188.25
271.68 K, Liquid	189.05
272.59 K, Liquid	189.75
273.55 K, Liquid	190.39
274.46 K, Liquid	191.2
275.41 K, Liquid	191.82
276.31 K, Liquid	192.56
277.26 K, Liquid	193.3
278.16 K, Liquid	193.91
279.11 K, Liquid	194.8
280 K, Liquid	195.48
280.94 K, Liquid	196.42
281.83 K, Liquid	197.02
282.77 K, Liquid	197.86
283.66 K, Liquid	198.58
284.6 K, Liquid	199.41
285.47 K, Liquid	200.28
286.41 K, Liquid	201.04
287.29 K, Liquid	201.86
288.22 K, Liquid	202.76
289.09 K, Liquid	203.46
290.02 K, Liquid	204.47
290.89 K, Liquid	205.13
291.81 K, Liquid	206.07
292.67 K, Liquid	206.55
293.6 K, Liquid	207.65
294.46 K, Liquid	208.23
295.38 K, Liquid	209.45
296.23 K, Liquid	210.26
297.15 K, Liquid	211.14
298 K, Liquid	211.98
298.92 K, Liquid	212.94
299.76 K, Liquid	213.73
300.68 K, Liquid	214.69
